The values below come from ChEMBL document CHEMBL1201862, “PubChem BioAssay data set” (2004).

The source made the active and inactive calls.

Assay [1] has as its target Aryl hydrocarbon receptor (Homo sapiens, UniProt P35869). In words: Luminescence-based cell-based high throughput dose response assay for activators of the Aryl Hydrocarbon Receptor (AHR). [Related pubchem assays: 2796 (Primary screen (AHR activators in singlicate)), 2845 (Confirmation screen (AHR activators in triplicate)), 434939 (Counterscreen (PXR activators in triplicate)), 2804 (Summary (AHR activators))]. Type of assay: ADME. For orientation: The purpose of a counterscreen is to sort out artefacts and off-target activity.

Assay [2] has as its system Streptococcus. In words: Luminescence Microorganism-Based Dose Response Follow up to Identify Compounds Cytotoxic to Streptococcus. [Related pubchem assays: 1677 (Project Summary), 1915, 1914, 1902 (Retest at Dose), 1900 (Counter Screen), 1662 (Primary HTS)]. Type of assay: functional, organism-based.
A short description of assay [3]: microbe, parasite or virus in culture. It is filed as functional. Particulars: Mycobacterium tuberculosis.
Assay [4] in a line: M. tuberculosis growth inhibition, HTS (AID 449762). Type of assay: functional.
In assay [5] the target is T1, Bcl-2-related protein A1 (Mus musculus, UniProt Q07440).
T1 sequence (Q07440 whole entry): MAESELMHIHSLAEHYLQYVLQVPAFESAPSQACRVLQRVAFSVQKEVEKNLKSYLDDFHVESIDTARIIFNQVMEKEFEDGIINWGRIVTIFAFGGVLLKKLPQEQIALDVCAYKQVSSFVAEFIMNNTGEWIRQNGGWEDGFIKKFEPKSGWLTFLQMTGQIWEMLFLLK
Put plainly: Bfl-1 binding inhibitors, SAR follow-up, biochemical, fluorescence polarization (AID 1070).

Assay [6] has as its target Glyceraldehyde-3-phosphate dehydrogenase (Homo sapiens, UniProt P04406).
The target in assay [7] is T1, Bcl-2-related protein A1. Put plainly: small-molecule antagonists of Bfl-1/BH3 interaction – biochemical, TR-FRET, mouse Bfl-1, confirmation (AID 621).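 Also: TR-FRET binding of GST-Bfl-1 to FITC-labelled Bid peptide via terbium antibody.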
The nature of assay [8]: viability of uninfected HEp-2 cells – cell-based, HTS, cytotoxicity control for RSV inhibitor project, dose response (AID 2410). Type of assay: functional. The conditions noted are these: human respiratory syncytial virus.
Assay [9] is described as follows: cells.
Assay [10] relates to Streptococcus sp. 'group A'. Put plainly: Streptococcus pyogenes SK(-)GAS viability under kanamycin – luminescence, BacTiterGlo, confirmation, counter-screen for streptokinase expression inhibitor project, dose response (AID 1900). Type of assay: functional, organism-based.
For assay [11], the target named is T2, Streptokinase A (Streptococcus pyogenes serotype M1, UniProt P10520).
T2 sequence (P10520 whole entry): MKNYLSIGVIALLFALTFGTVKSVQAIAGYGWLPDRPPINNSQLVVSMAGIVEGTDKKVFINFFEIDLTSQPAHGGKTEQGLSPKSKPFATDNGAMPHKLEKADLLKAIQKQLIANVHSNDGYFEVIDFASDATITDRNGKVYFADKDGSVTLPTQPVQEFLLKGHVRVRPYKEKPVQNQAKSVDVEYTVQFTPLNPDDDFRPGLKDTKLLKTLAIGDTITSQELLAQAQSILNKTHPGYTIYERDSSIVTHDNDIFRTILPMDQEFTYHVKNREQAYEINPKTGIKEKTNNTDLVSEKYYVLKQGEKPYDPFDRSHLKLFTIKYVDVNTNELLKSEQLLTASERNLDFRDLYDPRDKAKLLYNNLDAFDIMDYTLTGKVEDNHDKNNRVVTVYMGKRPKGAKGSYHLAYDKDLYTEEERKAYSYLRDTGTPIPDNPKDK
Put plainly: viability-normalized secreted streptokinase activity reduction – plasminogen activation absorbance, OD405, dose response (AID 1914).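 Also: secreted streptokinase activity via plasminogen activation per viability signal from cell pellet.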 It is filed as functional, Streptococcus pyogenes M1 GAS.

Assay [12] deals with Streptococcus. Put plainly: GAS UMAA2166 growth inhibition – luminescence, BacTiterGlo, counter-screen for streptokinase expression inhibitor project, dose response (AID 1915).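 Also: potency for reduction of bacterial viability or growth.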 It is filed as functional, organism-based.
Assay [13] concerns the target Cytochrome P450 3A4 (Homo sapiens, UniProt P08684). The conditions noted are these: Potency.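 Also: confirmatory qHTS run detecting inhibitors and substrates of CYP3A4.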
Assay [14] deals with T3, Microphthalmia-associated transcription factor (Homo sapiens, UniProt O75030).
T3 sequence (O75030 whole entry): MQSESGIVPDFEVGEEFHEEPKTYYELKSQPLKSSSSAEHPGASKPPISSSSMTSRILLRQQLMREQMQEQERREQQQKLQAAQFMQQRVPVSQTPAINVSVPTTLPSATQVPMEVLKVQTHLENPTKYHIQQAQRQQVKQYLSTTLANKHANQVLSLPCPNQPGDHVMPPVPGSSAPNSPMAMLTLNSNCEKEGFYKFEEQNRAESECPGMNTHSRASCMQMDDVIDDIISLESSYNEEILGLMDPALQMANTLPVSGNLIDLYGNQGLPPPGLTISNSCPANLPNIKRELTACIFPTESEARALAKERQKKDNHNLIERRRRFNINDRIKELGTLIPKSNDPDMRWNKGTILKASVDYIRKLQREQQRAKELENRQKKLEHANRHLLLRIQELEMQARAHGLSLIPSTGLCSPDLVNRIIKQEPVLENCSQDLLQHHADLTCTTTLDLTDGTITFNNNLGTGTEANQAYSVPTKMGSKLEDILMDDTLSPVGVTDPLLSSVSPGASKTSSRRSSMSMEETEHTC
Put plainly: reducers of TRPM1 reporter luminescence, concentration series – cell-based, SK-MEL-5, cherry-picked, set 3, MITF inhibitor project, dose response (AID 493073).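 Also: SK-MEL-5 melanoma cells with luciferase driven by the MITF target TRPM1 promoter.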 Type of assay: functional.

The target of assay [15] is Oxytocin receptor (Homo sapiens, UniProt P30559). In words: Fluorescence-based cell-based high throughput dose response assay for agonists of the Oxytocin Receptor (OXTR). [Related pubchem assays: 2435 (Primary screen (OXTR agonists in singlicate)), 434991 (Counterscreen (V1R agonists in triplicate)), 2482 (Summary (OXTR agonists)), 434963 (Confirmation screen (OXTR agonists in triplicate))]. It is filed as functional.
Oxytocin receptor, sequence (P30559 whole entry): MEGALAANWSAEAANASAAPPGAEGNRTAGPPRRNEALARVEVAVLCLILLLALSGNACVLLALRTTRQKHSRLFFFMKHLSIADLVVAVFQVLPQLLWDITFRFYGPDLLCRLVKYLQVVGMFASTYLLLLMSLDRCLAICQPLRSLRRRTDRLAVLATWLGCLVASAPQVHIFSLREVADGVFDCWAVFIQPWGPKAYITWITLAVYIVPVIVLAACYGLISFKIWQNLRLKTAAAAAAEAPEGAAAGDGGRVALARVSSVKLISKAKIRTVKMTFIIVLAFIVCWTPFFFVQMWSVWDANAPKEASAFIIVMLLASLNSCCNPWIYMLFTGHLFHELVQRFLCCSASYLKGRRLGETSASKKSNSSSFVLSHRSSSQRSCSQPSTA

In assay [16] the target is Vasopressin V1a receptor (Homo sapiens, UniProt P37288). In words: Counterscreen for Oxytocin Receptor (OXTR) agonists: Fluorescence-based cell-based high throughput dose response assay to identify agonists of the vasopressin 1 receptor (V1R). [Related pubchem assays: 2435 (Primary screen (OXTR agonists in singlicate)), 434991 (Counterscreen (V1R agonists in triplicate)), 2482 (Summary (OXTR agonists)) …. It is filed as functional.
Vasopressin V1a receptor, sequence (P37288 whole entry): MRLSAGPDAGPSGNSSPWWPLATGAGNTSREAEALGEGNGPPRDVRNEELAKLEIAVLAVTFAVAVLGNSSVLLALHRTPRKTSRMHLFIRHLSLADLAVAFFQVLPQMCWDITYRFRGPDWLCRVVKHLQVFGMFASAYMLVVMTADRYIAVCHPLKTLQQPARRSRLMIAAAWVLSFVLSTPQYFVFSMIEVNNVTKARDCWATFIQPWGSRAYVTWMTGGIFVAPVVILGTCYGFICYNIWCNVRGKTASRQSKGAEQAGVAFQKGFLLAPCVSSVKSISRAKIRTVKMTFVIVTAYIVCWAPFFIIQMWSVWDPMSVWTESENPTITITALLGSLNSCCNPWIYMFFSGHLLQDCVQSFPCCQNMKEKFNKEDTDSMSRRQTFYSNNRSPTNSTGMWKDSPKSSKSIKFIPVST

Assay [17] relates to A-375. In words: MITF: Counter assay: A375 proliferation Measured in Cell-Based System Using Plate Reader - 2084-03_Inhibitor_Dose_DryPowder_Activity. [Related pubchem assays (depositor defined):AID488944]. It is filed as functional. Particulars: Homo sapiens.
Assay [18] in a line: general mammalian cell viability loss – activator set, cherry-pick, cytotoxicity control for miR-122 modulator project, dose response (AID 720690).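 Also: HEK293T human cells scored for general mammalian cytotoxicity.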 It is filed as functional, cell-based.
Assay [19] is described as follows: activation of miR-122 Renilla sensor silencing – cell-based, Huh7 psiCHECK-miR122, Renilla luciferase, cherry-picked, dose response (AID 651956).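 Also: huh7 hepatoma cells stably carrying a psiCHECK-2 miR-122 sensor plasmid; renilla luciferase signal reporting endogenous miR-122 activity after 48 h compound exposure.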 It is filed as functional.
Assay [20] concerns the target Dual specificity protein phosphatase 3 (Homo sapiens, UniProt P51452). In words: SAR VHR1 Fluorescent Assay for In Vitro dose response studies Set 2. [Related pubchem assays (depositor defined):AID1654, AID1661, AID1878]. Type of assay: functional.
For assay [21], the target named is T4, Tyrosine-protein phosphatase non-receptor type 7 (Homo sapiens, UniProt P35236).
T4 sequence (P35236 whole entry): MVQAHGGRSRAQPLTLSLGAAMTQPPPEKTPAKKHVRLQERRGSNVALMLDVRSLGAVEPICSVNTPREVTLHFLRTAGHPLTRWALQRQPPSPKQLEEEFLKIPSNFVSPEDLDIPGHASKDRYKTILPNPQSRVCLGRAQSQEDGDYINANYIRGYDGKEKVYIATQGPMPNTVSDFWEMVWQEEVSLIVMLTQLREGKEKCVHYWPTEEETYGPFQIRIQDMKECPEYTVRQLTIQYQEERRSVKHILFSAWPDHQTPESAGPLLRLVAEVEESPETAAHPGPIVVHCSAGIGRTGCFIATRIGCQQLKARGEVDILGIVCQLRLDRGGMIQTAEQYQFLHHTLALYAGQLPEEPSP
Put plainly: SAR analysis of chemical inhibitors of HePTP using a Fluorescent assay - Set 2. [Related pubchem assays (depositor defined):AID1059, AID1077, AID1661, AID2085, AID521]. Type of assay: functional.

Glyceraldehyde-3-phosphate dehydrogenase, sequence (P04406 whole entry): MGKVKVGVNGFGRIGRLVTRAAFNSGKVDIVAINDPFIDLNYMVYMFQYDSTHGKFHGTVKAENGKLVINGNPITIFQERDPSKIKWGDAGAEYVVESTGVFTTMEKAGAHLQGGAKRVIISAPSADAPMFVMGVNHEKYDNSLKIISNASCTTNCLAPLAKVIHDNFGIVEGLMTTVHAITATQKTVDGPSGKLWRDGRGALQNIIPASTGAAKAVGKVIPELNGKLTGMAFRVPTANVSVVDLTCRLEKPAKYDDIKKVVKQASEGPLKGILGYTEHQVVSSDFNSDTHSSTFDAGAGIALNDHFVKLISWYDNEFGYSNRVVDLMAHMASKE
Cytochrome P450 3A4, sequence (P08684 whole entry): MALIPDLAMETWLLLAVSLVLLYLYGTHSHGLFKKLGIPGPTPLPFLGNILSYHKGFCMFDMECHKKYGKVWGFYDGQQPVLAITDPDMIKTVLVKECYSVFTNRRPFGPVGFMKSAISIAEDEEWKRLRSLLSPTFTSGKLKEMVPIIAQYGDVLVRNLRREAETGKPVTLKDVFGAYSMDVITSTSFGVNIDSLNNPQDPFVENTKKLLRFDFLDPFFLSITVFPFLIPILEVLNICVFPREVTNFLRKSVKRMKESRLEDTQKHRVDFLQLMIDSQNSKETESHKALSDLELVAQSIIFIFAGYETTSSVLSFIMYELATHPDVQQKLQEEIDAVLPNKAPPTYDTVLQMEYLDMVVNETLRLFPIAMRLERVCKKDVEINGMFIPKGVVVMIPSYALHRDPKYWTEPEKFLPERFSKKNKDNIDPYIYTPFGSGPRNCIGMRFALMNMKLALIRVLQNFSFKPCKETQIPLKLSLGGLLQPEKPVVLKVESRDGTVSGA
Dual specificity protein phosphatase 3, sequence (P51452 whole entry): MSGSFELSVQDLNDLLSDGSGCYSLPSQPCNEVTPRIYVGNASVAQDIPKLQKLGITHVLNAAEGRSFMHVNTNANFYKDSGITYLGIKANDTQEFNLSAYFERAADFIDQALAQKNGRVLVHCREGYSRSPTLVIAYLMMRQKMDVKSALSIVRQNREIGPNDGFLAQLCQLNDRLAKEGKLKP
Aryl hydrocarbon receptor, sequence (P35869 whole entry): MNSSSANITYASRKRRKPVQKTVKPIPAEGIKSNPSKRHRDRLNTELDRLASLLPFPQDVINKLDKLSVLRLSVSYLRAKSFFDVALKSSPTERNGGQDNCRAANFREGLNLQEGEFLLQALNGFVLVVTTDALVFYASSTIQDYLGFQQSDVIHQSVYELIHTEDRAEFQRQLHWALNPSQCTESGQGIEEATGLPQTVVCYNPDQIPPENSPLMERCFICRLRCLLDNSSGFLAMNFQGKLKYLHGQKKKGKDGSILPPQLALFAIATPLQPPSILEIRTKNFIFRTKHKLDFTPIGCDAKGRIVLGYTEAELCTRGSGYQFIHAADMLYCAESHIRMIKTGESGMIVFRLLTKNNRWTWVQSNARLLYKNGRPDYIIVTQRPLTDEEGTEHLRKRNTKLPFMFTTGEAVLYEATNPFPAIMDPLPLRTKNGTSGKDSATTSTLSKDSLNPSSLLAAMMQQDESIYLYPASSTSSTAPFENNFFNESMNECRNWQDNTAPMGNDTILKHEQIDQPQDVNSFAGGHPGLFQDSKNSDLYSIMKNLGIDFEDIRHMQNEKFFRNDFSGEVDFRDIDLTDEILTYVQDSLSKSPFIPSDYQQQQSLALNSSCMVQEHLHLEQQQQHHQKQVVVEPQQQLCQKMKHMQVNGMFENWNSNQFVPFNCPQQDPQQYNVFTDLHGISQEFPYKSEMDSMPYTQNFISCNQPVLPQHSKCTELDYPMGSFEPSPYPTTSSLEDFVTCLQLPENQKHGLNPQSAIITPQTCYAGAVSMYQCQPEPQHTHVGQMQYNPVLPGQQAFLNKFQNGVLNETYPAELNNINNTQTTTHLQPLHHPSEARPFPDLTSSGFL

For `CC(=O)c1ccc(NC(=O)c2cc(Cl)nc3ccccc23)cc1`, the EC50 in assay [1] was 1.66 µM (active).

Consider `Cc1ccc(C(=O)C(c2ccccc2)N2Cc3ccccc3C2=N)cc1` (configuration not stated), for which the EC50 in assay [2] is 33.5 µM (active).

As for `CCCCCCCC(=O)N/N=C(/C)c1c(O)cc(C)oc1=O`, the CC50 in assay [3] is > 40 µM (active). Moreover, in assay [4], the IC50 is > 100 µM (active).

In the case of `Cc1cc(-c2ccccc2)nc(S(C)(=O)=O)n1`, the IC50 in [5], in [6] and in [7] was > 100 µM (not active) in each case.

With `Cn1cnnc1Sc1cc(N2CCN(S(=O)(=O)c3ccc(Cl)c(Cl)c3)CC2)ccc1[N+](=O)[O-]`, the CC50 in assay [8] is > 50 µM (active). The IC50 in [9] is 10.7 µM (active).

As for `CCN(CC)C(=S)SCC(=O)Nc1nc(-c2ccccc2)c(-c2ccccc2)o1`, the EC50 was 7.26 µM (active) in assay [10], 8.54 µM (active) in assay [11], > 500 µM (not active) in [2] and > 150 µM (not active) in [12].

Take `CCOC(=O)CC(SP(=O)(OC)OC)C(=O)OCC` (configuration not stated): the AC50 in assay [13] is 25.1 µM (inconclusive).

As to `N=c1n(CC(=O)c2ccc(Br)s2)c2ccccc2n1Cc1ccccc1`, the AC50 in assay [14] was 7.34 µM (active); in [17] it was 19.7 µM (active); in assay [18], 11.4 µM (active); in assay [19] it was 10.9 µM (active). The concentration for a half-maximal effect (EC50) in assay [15] is on record as 14.8 µM (not active); in assay [16], 15.1 µM (not active).

On to `COc1cc(C(=S)NCc2cccc(C(F)(F)F)c2)ccc1O`, for which the IC50 was 47 µM (active) in assay [20] and 55 µM (active) in assay [21].

By EC50 is commonly meant the concentration at which the effect is half-maximal. Usually IC50 stands for the concentration needed to halve the response being measured. Usually AC50 stands for the midpoint of the concentration-response curve, whichever way the signal moves.
